One block for each molecule: values may come before it.
What was measured:
[1] = tested on: β-amyloid production by 7W WT APP751 CHO cells; assay: Screening of dihydropyridine compounds of Table 2, Aβ1-40 and Aβ1-42 (Example 5); type: cell-based, Chinese hamster; settings: for concentration of Aβ1-40 or Aβ1-42 compared to control: 3, 10, 30 and 100 μM, 24 hours (FIGS. 22A, 22B, 23A, 23B); for concentration of Aβ1-40 compared to control: 3 and 10 μM, 24 hours (FIG. 24)
Protocol: (§1) The 7W WT APP751 CHO cells were plated in 24-well cell culture plates in quadruplicate, containing 1 ml of culture medium, and treated with various calcium channel blocker compounds for 4 hours, 24 hours or 48 hours at 37° C. and 5% CO2. All test compounds were diluted in dimethyl sulfoxide (DMSO) before being added to the cultured confluent 7W WT APP751 CHO cells. The culture medium was collected and diluted 5-fold for the 4 hours assay and 50-fold for the 24 hour assay before being assayed by ELISAs for Aβ1-40 and Aβ1-42, respectively. Concentrations of Aβ1-40 and Aβ1-42, expressed in pg/ml, were determined using commercially available ELISAs (Biosource, CA) in a colorimetric assay using labeled antibodies detected spectrophotometrically.
The screening of dihydropyridine compounds was conducted according to the procedure described in Example 1. Each compound was added to confluent cells to a final concentration of 3, 10, 30 or 100 μM and tested. Each of these compounds was added to confluent cells to a final concentration of 3 μM (noted as “C” in FIG. 24) or 10 μM (noted as “B” in FIG. 24).

[2] = tested on: β-amyloid production by 7W WT APP751 CHO cells; assay: Measurement of Aβ1-40 and Aβ1-42 by ELISA in culture medium (Example 1, calcium channel blockers); type: cell-based, Chinese hamster
Protocol: Chinese hamster ovary (CHO) cells, stably transfected with human APP751 (7W WT APP751 CHO cells) were used. See, e.g., Koo and Squazzo, J. Biol. Chem., Vol. 269, Issue 26, 17386-17389, July, 1994. The cells were maintained in DMEM medium supplemented with 10% fetal bovine serum and 1× mixture of penicillin/streptomycin/fungizone/glutamine mixture (Cambrex, MD) geneticin as selecting agent in 75 cm^2 cell culture flasks.
as §1
G-sec Inhib XIX, SKF 96365, 2-APB, felodipine, FPL, clotrimazole, tetrandrine, R24571, and econazole are available, as Calbiochem products from EMD Biosciences, Inc., La Jolla, Calif.; nilvadipine, nitrendipine and amlodipine (amlodipine besylate) are available, e.g., from Fujisawa, Osaka, Japan; thapsigargin, BAPTA-AM and TA9 (Tyrphostin A9) are available, e.g., as a Sigma product from Sigma-Aldrich Corp., St. Louis, Mo.; and felodipine, diltiazem, S(−)Bay K8644, R(+)Bay K8644, MRS 1845, SR 33805, loperamide, and isradipine are available from Tocris Cookson Inc., Ellisville, Mo.

Tg APPsw mice = Tg APPsw mice given ibuprofen; cited from earlier work
[3] = 30 μM, cells plated at low density, 24 hours (FIG. 1C)
[4] = 30 μM, cells plated at low density, 48 hours (FIG. 1D)

Structure (SMILES): COCCOC(=O)C1=C(C)NC(C)=C(C(=O)OCCOC)C1c1ccccc1Cl [Example 2-19]
concentration of Aβ1-40 or Aβ1-42 compared to control [1]: decreased

Structure (SMILES): CCOC(=O)C1=C(C)NC(C)=C(C(=O)OCC)C1c1ccccc1Br [Example 2-23, Diethyl 4-(2-bromophenyl)-1,4-dihydro-2,6-dimethylpyridine-3,5-dicarboxylate]
concentration of Aβ1-40 or Aβ1-42 compared to control [1]: decreased

Structure (SMILES): CCOC(=O)C1=C(C)NC(C)=C(C(=O)OCC)C1c1ccccc1F [Example 2-27, Diethyl 4-(2-fluorophenyl)-1,4-dihydro-2,6-dimethylpyridine-3,5-dicarboxylate]
concentration of Aβ1-40 or Aβ1-42 compared to control [1]: decreased

melting point: 201 to 202 °C
Structure (SMILES): CC1=C(C(=O)OC(C)(C)C)C(c2ccccc2F)C(C(=O)OC(C)(C)C)=C(C)N1 [Example 2-28, Di-tert-butyl 4-(2-fluorophenyl)-1,4-dihydro-2,6-dimethylpyridine-3,5-dicarboxylate]
concentration of Aβ1-40 or Aβ1-42 compared to control [1]: decreased

melting point: 120 to 121 °C
Structure (SMILES): CCOC(=O)C1=C(C)NC(C)=C(C(=O)OCC)C1c1ccccc1[N+](=O)[O-] [Example 2-29, Diethyl 1,4-dihydro-2,6-dimethyl-4-(2-nitrophenyl)pyridine-3,5-dicarboxylate]
concentration of Aβ1-40 or Aβ1-42 compared to control [1]: decreased

Structure (SMILES): CC1=C(C(=O)OC(C)(C)C)C(c2ccccc2Br)C(C(=O)OC(C)(C)C)=C(C)N1 [Example 2-32, Di-tert-butyl 4-(2-bromophenyl)-1,4-dihydro-2,6-dimethylpyridine-3,5-dicarboxylate]
concentration of Aβ1-40 or Aβ1-42 compared to control [1]: decreased

Structure (SMILES): CC1=C(C(=O)OC(C)(C)C)C(c2ccccc2[N+](=O)[O-])C(C(=O)OC(C)(C)C)=C(C)N1 [Example 2-33, Di-tert-butyl 1,4-dihydro-2,6-dimethyl-4-(2-nitrophenyl)pyridine-3,5-dicarboxylate]
concentration of Aβ1-40 or Aβ1-42 compared to control [1]: decreased

Structure (SMILES): CCOC(=O)C1=C(C)NC(C)=C(C(=O)OCC)C1c1cccc(F)c1F [Example 3-22]
concentration of Aβ1-40 compared to control [1]: decreased

Structure (SMILES): CC1=C(C(=O)OC(C)(C)C)C(c2cccc(F)c2F)C(C(=O)OC(C)(C)C)=C(C)N1 [Example 3-23]
concentration of Aβ1-40 compared to control [1]: decreased

Structure (SMILES): CCOC(=O)C1=C(C)NC(C)=C(C(=O)OCC)C1c1ccc(Br)cc1F [Example 3-33]
concentration of Aβ1-40 compared to control [1]: decreased

Structure (SMILES): CC1=C(C(=O)OC(C)(C)C)C(c2ccc(Br)cc2F)C(C(=O)OC(C)(C)C)=C(C)N1 [Example 3-34, Di-tert-butyl 4-(4-bromo-2-fluorophenyl)-1,4-dihydro-2,6-dimethylpyridine-3,5-dicarboxylate]
concentration of Aβ1-40 compared to control [1]: decreased

Structure (SMILES): COCCOC(=O)C1=C(C)NC(C)=C(C(=O)OCCOC)C1c1cccc(Br)c1 [Example 3-37]
concentration of Aβ1-40 compared to control [1]: decreased

Structure (SMILES): COCCOC(=O)C1=C(C)NC(C)=C(C(=O)OCCOC)C1c1ccc(Br)cc1 [Example 3-38, Bis(2-methoxyethyl) 4-(4-bromophenyl)-1,4-dihydro-2,6-dimethylpyridine-3,5-dicarboxylate]
concentration of Aβ1-40 compared to control [1]: decreased

Structure (SMILES): CCOC(=O)C1=C(C)NC(C)=C(C(=O)OCC)C1c1cc(Br)ccc1F [Example 3-41, Diethyl 4-(5-bromo-2-fluorophenyl)-1,4-dihydro-2,6-dimethylpyridine-3,5-dicarboxylate]
concentration of Aβ1-40 compared to control [1]: decreased

Structure (SMILES): CC1=C(C(=O)OC(C)(C)C)C(c2cc(Br)ccc2F)C(C(=O)OC(C)(C)C)=C(C)N1 [Example 3-42]
concentration of Aβ1-40 compared to control [1]: decreased

Structure (SMILES): COc1ccc(CCCOC(Cn2ccnc2)c2ccc(OC)cc2)cc1.Cl (stereo not drawn) [SKF 96365, 1-[beta-[3-(4-methoxyphenyl)propoxy]-4-methoxyphenethyl]-1H-imidazole hydrochloride]
concentration of Aβ1-40 compared to controls ([2]; 15 μM, 24 hours (FIG. 1B)): significantly decreased | concentration of Aβ1-40 compared to controls ([2]; 30 μM (FIG. 2)): significantly decreased | concentration of Aβ1-42 compared to controls ([2]; 30 μM (FIG. 2)): significantly decreased | concentration of total β-amyloid compared to controls ([2]; 30 μM (FIG. 2)): significantly decreased | concentration of Aβ1-40 compared to controls ([2]; 30 μM, 24 hours (FIG. 1B)): significantly decreased

Structure (SMILES): Clc1ccccc1C(c1ccccc1)(c1ccccc1)n1ccnc1 [clotrimazole]
concentration of Aβ1-40 compared to controls ([2]; 20 μM (FIG. 4)): significantly decreased | concentration of total β-amyloid compared to controls ([2]; 20 μM (FIG. 4)): significantly decreased

Structure (SMILES): CC(C)Cc1ccc(C(C)C(=O)O)cc1 (stereo not drawn) [ibuprofen]
β-amyloid deposits, astrocytosis, and dystrophic neurites (Tg APPsw mice): reduction

Structure (SMILES): CN(C)C(=O)C(CCN1CCC(O)(c2ccc(Cl)cc2)CC1)(c1ccccc1)c1ccccc1 [loperamide]
concentration of Aβ1-40 compared to controls ([2]; 30 μM (FIG. 4)): significantly decreased | concentration of Aβ1-42 compared to controls ([2]; 30 μM (FIG. 4)): significantly decreased | concentration of total β-amyloid compared to controls ([2]; 30 μM (FIG. 4)): significantly decreased

Structure (SMILES): COC(=O)C1=C(C#N)NC(C)=C(C(=O)OC(C)C)C1c1cccc([N+](=O)[O-])c1 (stereo not drawn) [nilvadipine]
concentration of Aβ1-40 compared to controls ([2]; 30 μM (FIG. 3)): significantly decreased | concentration of total β-amyloid compared to controls ([2]; 30 μM (FIG. 3)): significantly decreased | concentration of Aβ1-40 compared to controls ([2]; 30 μM, 24 hours (FIG. 1B)): significantly decreased | concentration of Aβ1-40 compared to controls [2, 3]: significantly decreased | concentration of Aβ1-40 compared to controls [2, 4]: significantly decreased

Structure (SMILES): CCOC(=O)C1=C(C)NC(C)=C(C(=O)OC)C1c1cccc([N+](=O)[O-])c1 (stereo not drawn) [nitrendipine]
concentration of Aβ1-40 compared to controls ([2]; 30 μM (FIG. 3)): significantly decreased | concentration of total β-amyloid compared to controls ([2]; 30 μM (FIG. 3)): significantly decreased | concentration of Aβ1-40 compared to controls [2, 3]: significantly decreased | concentration of Aβ1-40 compared to controls [2, 4]: significantly decreased

Structure (SMILES): COc1ccc2cc1Oc1ccc(cc1)C[C@H]1c3cc(c(OC)cc3CCN1C)Oc1c(OC)c(OC)cc3c1[C@H](C2)N(C)CC3 [tetrandine, tetrandrine]
concentration of Aβ1-40 compared to controls ([2]; 5 μM (FIG. 4)): significantly decreased | concentration of total β-amyloid compared to controls ([2]; 5 μM (FIG. 4)): significantly decreased | concentration of Aβ1-40 compared to controls ([2]; 10 μM (FIG. 4)): significantly decreased | concentration of total β-amyloid compared to controls ([2]; 10 μM (FIG. 4)): significantly decreased | concentration of Aβ1-40 compared to controls ([2]; 20 μM (FIG. 4)): significantly decreased | concentration of total β-amyloid compared to controls ([2]; 20 μM (FIG. 4)): significantly decreased | concentration of Aβ1-40 compared to controls ([2]; 30 μM (FIG. 4)): significantly decreased | concentration of total β-amyloid compared to controls ([2]; 30 μM (FIG. 4)): significantly decreased

Structure (SMILES): CC(C)(C)c1cc(C=C(C#N)C#N)cc(C(C)(C)C)c1O [tyrphostin A9]
concentration of Aβ1-40 compared to controls ([2]; 20 μM (FIG. 2)): significantly decreased | concentration of Aβ1-42 compared to controls ([2]; 20 μM (FIG. 2)): significantly decreased | concentration of total β-amyloid compared to controls ([2]; 20 μM (FIG. 2)): significantly decreased
